In PMC4154066 (Chemical research in toxicology, 2013):
Where two headings read alike, the source gives them in different places.

What was measured:
HepG2 cells [1] = experiment: cells; type: cell-based, Human; conditions: for Compound potency (IC50) LDH Release 5 h: HepG2, 5 h treatment
HepG2 cells [2] = experiment: Oxygen consumption rate; type: cell-based, Human; conditions: for Relative percentage OCR 30 Sec: HepG2, 30 sec after compound at its MMP IC50; for Relative percentage OCR 30 Sec / Relative percentage OCR 1 h: basal OCR = 100%, mean ± SD; for Relative percentage OCR 1 h: HepG2, 1 h after compound at its MMP IC50; for Effect on OCR / FCCP-uncoupled OCR (in words): HepG2, compound at its MMP IC50, 30 sec and 1 h, then FCCP
caspase 9 = conditions: HepG2, 5 h; cited from earlier work
caspase 3/7 = conditions: HepG2, 16 h; cited from earlier work
[3] = system: mitochondrial membrane potential in HepG2 cells; experiment: qHTS MMP assay, primary screen; type: cell-based, Human; conditions: for IC50: Homo sapiens
HepG2 cells [4] = conditions: HepG2, 40 h; cited from earlier work
[5] = system: mitochondrial membrane potential in HepG2 cells; experiment: MMP assay, powder compound confirmation, fluorescence plate reader; type: cell-based, Human
[6] = HepG2, 1 h treatment, mean ± SD, 3 independent experiments
[7] = mean ± SD, 3 independent experiments
[8] = Homo sapiens, HepG2, 5 h, read-out: Compound potency (IC50) LDH Release 5 h
[9] = Homo sapiens, HepG2, 1 h, read-out: Compound potency (IC50) LDH Release 1 h
[10] = read-out: Compound potency (IC50) LDH Release 1 h, HepG2, 1 h treatment, mean ± SD, 3 independent experiments

SMILES | Compound potency (IC50) LDH Release 5 h (HepG2 cells [1]; [7]) | Relative percentage OCR 30 Sec (HepG2 cells [2]) [%] | Relative percentage OCR 1 h (HepG2 cells [2]) [%] | Effect on OCR / FCCP-uncoupled OCR (in words) (HepG2 cells [2]) | other results
CN(C)c1ccc(C(=C2C=CC(=[N+](C)C)C=C2)c2ccc(N(C)C)cc2)cc1 [Hexamethyl-p-rosaniline chloride] | cytotoxic | 132.56 ± 3.88 | 105.01 ± 1.65 | immediate uncoupling | Compound potency (IC50) LDH Release 1 h (HepG2 cells [1]; [6]): Inconclusive; IC50 (HepG2 cells [1]; [8]): 56.1 µM; activation of caspase 9 (caspase 9): seems to activate caspase 9; induction of caspase 3/7 (caspase 3/7): induced caspase 3/7
C[C@@H]1CC[C@@]2(OC1)O[C@H]1[C@@H](O)[C@H]3[C@@H]4CC[C@H]5C[C@@H](O[C@@H]6O[C@H](CO)[C@H](O[C@@H]7O[C@H](CO)[C@@H](O)[C@H](O[C@@H]8OC[C@@H](O)[C@H](O)[C@H]8O)[C@H]7O[C@@H]7O[C@H](CO)[C@H](O)[C@H](O[C@@H]8O[C@H](CO)[C@@H](O)[C@H](O)[C@H]8O)[C@H]7O)[C@H](O)[C@H]6O)[C@H](O)C[C@]5(C)[C@H]4CC[C@]3(C)[C@H]1[C@@H]2C [Digitonin] | – | 57.25 ± 6.4 | 54.89 ± 0.48 | depressed both basal and FCCP uncoupled rates | IC50 (HepG2 cells [1]; [9]): 45.1 ± 8.43 µM; IC50 (HepG2 cells [1]; [8]): 45.1 ± 8.43 µM
N#CC(C#N)=NNc1ccc(OC(F)(F)F)cc1 [FCCP, Carbonyl cyanide 4-(trifluoromethoxy)phenylhydrazone, reference compound] | – | – | – | – | IC50 ([3]; HepG2, 1 h, read-out: mean IC50 of positive control, 1 h): 0.81 ± 0.2 µM; IC50 ([3]; HepG2, 5 h, read-out: mean IC50 of positive control, 5 h): 1.28 ± 0.32 µM
CCCCCCCC[N+](CCCCCCCC)(CCCCCCCC)CCCCCCCC.[Br-] [tetra-N-Octylammonium bromide] | – | 122.56 ± 40.61 | 215.53 ± 1.14 | – | IC50 (HepG2 cells [1]; [10]): 35.4 ± 12.6 µM
Cl.N=C1C=CC(=C(c2ccc(N)cc2)c2ccc(N)cc2)C=C1 [Basic red 9 (p-Rosaniline HCl), p-Rosaniline HCl] | negative | −9.78 ± 16.86 | 35.74 ± 2.42 | – | induction of caspase 3/7 (caspase 3/7): negative
Cc1cc(O)c2c(c1)C(=O)c1cc(O)cc(O)c1C2=O [Emodin] | – | 235.59 ± 56.54 | 210.48 ± 1.83 | acted as uncouplers | cytotoxicity at 40 h (HepG2 cells [4]): cytotoxic
Cc1cc(O)c(C(C)(C)C)cc1Sc1cc(C(C)(C)C)c(O)cc1C [4,4-Thiobis(6-t-butyl-m-cresol)] | Inconclusive | 106.32 ± 4 | 127.15 ± 1.52 | – | Compound potency (IC50) LDH Release 1 h (HepG2 cells [1]; [6]): Inactive
CN(C)c1ccc(C(=C2C=CC(=[N+](C)C)C=C2)c2ccccc2)cc1.CN(C)c1ccc(C(=C2C=CC(=[N+](C)C)C=C2)c2ccccc2)cc1.O=C(O)C(=O)O.O=C([O-])C(=O)O.O=C([O-])C(=O)O [Malachite green oxalate] | cytotoxic | 163.81 ± 17.5 | 97.14 ± 3.09 | immediate uncoupling | Primary screen outcome (MMP decrease) 1 h [3]: positive; Primary screen outcome (MMP decrease) 5 h [3]: positive; Compound potency (IC50) LDH Release 1 h (HepG2 cells [1]; [6]): Inactive; induction of caspase 3/7 (caspase 3/7): induced caspase 3/7
O=c1cc(-c2ccc(O)cc2)oc2cc(O)cc(O)c12 [Apigenin] | – | 99.69 ± 1.13 | 107.51 ± 0.16 | did not affect the OCR or the FCCP-uncoupled OCR | cytotoxicity at 40 h (HepG2 cells [4]): the only exception
CC(=O)[O][Hg][c]1ccccc1 [Phenyl mercuric acetate] | – | 67.6 ± 5.55 | 51.54 ± 0.26 | depressed both basal and FCCP uncoupled rates | IC50 (HepG2 cells [1]; [10]): 68.1 ± 4.44 µM
O=C1c2c(O)ccc([N+](=O)[O-])c2C(=O)c2c([N+](=O)[O-])ccc(O)c21 [1,8-Dihydroxy-4,5-dinitroanthraquinone] | – | 144.03 ± 7.3 | 150.09 ± 1.27 | acted as uncouplers | cytotoxicity at 40 h (HepG2 cells [4]): cytotoxic
O=c1c(O)c(-c2ccc(O)cc2)oc2cc(O)cc(O)c12 [Kaempferol] | Inconclusive | 118.63 ± 4.29 | 138.85 ± 1.28 | acted as an uncoupler | Compound potency (IC50) LDH Release 1 h (HepG2 cells [1]; [6]): Inactive
COc1cc(C2Oc3cc([C@H]4Oc5cc(O)cc(O)c5C(=O)[C@@H]4O)ccc3OC2CO)ccc1O (some centres unmarked) [Silibinin] | – | 92.67 ± 0.69 | 95.66 ± 0.46 | significantly suppressed the FCCP uncoupled rates | Compound potency (IC50) Fluorescence readout 5 h ([5]; HepG2, powder compound confirmation, 5 h, mean ± SD, 4 independent experiments): weakly active; Emax ([5]; Homo sapiens, HepG2, 5 h, read-out: efficacy (maximal response)): 38.1%
Oc1c(Cl)cc(Cl)c(Cl)c1Cc1c(O)c(Cl)cc(Cl)c1Cl [Hexachlorophene] | – | 201.72 ± 51.19 | 175.25 ± 1.35 | – | –
Oc1ccc(/C=C/c2cc(O)cc(O)c2)cc1 [Resveratrol] | – | 100.5 ± 0.73 | 110.92 ± 0.36 | – | –
Nc1cccc2c(N)cccc12 [1,5-Naphthalenediamine] | – | 104.68 ± 1.3 | 115.87 ± 0.7 | – | –
COC(=O)Nc1cccc(OC(=O)Nc2cccc(C)c2)c1 [Phenmedipham] | Inconclusive | 105.47 ± 2.71 | 130.87 ± 1.18 | – | Compound potency (IC50) LDH Release 1 h (HepG2 cells [1]; [6]): Inactive; Potency for cytotoxicity (LDH) compared with MMP decrease, 5 h (HepG2 cells [1]; HepG2, 5 h): more potent for cytotoxicity than for MMP disruption
Oc1ccc(Cl)cc1Cc1ccccc1 [o-Benzyl-p-chlorophenol] | – | 123.51 ± 12.67 | 126.12 ± 0.47 | – | –
O=C1C2(Cl)C3(Cl)C4(Cl)C(Cl)(Cl)C5(Cl)C3(Cl)C1(Cl)C5(Cl)C24Cl (centres unmarked) [Kepone] | – | 139.53 ± 5.8 | 140.71 ± 0.96 | – | IC50 (HepG2 cells [1]; [9]): 49.1 ± 12.3 µM; IC50 (HepG2 cells [1]; [8]): 58.4 ± 3.95 µM
